Positions of bridges follow the written chain, without caps; N, C: chain ends. Non-standard residues stand in square brackets, D forms with d. Residues, ends and D or L forms follow the SMILES beside them. Phe(4-OC2H4NH2,2,3-(CH2)3) = NCCOc1ccc(C[C@H](N)C(=O)O)c2c1CCC2; Trp(7-cPr) = N[C@@H](Cc1c[nH]c2c(C3CC3)cccc12)C(=O)O; Trp(7-Me) = Cc1cccc2c(C[C@H](N)C(=O)O)c[nH]c12; 2Nal = N[C@@H](Cc1ccc2ccccc2c1)C(=O)O; Thp(SO2) = NC1(C(=O)O)CCS(=O)(=O)CC1; AEF = NCCOc1ccc(C[C@H](N)C(=O)O)cc1; 3Pal = N[C@@H](Cc1cccnc1)C(=O)O; Cit = NC(=O)NCCC[C@H](N)C(=O)O; Pen = CC(C)(S)[C@H](N)C(=O)O; Dab = NCC[C@H](N)C(=O)O; Thp = NC1(C(=O)O)CCOCC1; Sar = CNCC(=O)O
Columns and labels:
[1] = biological target: (Homo sapiens, UniProt Q5VWK5); experiment: IL-23-stimulated pSTAT3 detection assay in PBMCs (ELISA); format: cell-based; conditions: rhIL23 stimulation 30 minutes, read-out: pSTAT3 inhibition/IC50
Procedure: 3. IL-23-stimulated pSTAT3 detection assay in PBMCs
Cryopreserved human PBMCs were thawed, and seeded onto a plate previously covered with an anti-CD3 antibody at 1 × 10^6 cells/well. Then, an anti-CD28 antibody was added to the plate, and the cells were incubated at 37°C with 5% CO2 for 5 days. On Day 5, the cells were seeded onto a 96-well plate at a density of 100K cells/well after 4 hours of stimulation by FBS starvation. The diluted Compound was transferred into the 96-well cell culture plate, and the plate was incubated at 37°C with 5% CO2 for 1 hour. rhIL23 (R&D, 1290-IL) was added to the cell culture plate, and the plate was incubated at 37°C with 5% CO2 for 30 minutes. The cells in the wells were lysed on ice with a lysis buffer containing 1× PHOSstop solution for 30 minutes, and the plate was centrifuged at 1000 rpm for 1 minute. Then, the supernatant was transferred into a 96-well ELISA plate, and pSTAT3 ELISA assay was performed according to the instructions of the kit (CST, 7300CA). Absorbance values at […] were read on PHERAstar FSX (BMG LRBTECH). The inhibition rate of the compounds was assessed using the following formula, and IC50 values were obtained by fitting with Graphpad.
(§1) Calculation formula of inhibition rate: [formula] • where Data negative: mean of DMSO control group; and • Data positive: mean of non-IL23-stimulated group
The calculation formula of IC50 was as follows: Y = Bottom + (Top−Bottom)/(1+10^(∧)((LogIC50−X)*HillSlope)) [formula] • where X: concentration of compound; and • Y: inhibition rate of compound. Table 3. pSTAT3 inhibition

IL-23α/IL-12β and IL-23R = biological target: T1, IL-23α/IL-12β and IL-23R (Homo sapiens, UniProt Q5VWK5); experiment: IL-23α/IL-12β and IL-23R binding assay (TR-FRET/HTRF); conditions: inhibition of the binding of IL-23α/IL-12β to IL-23R, TR-FRET; both proteins 0.3 nM
T1 construct: purchased ACRO ILR-H82F3 (IL-23R); ILB-H52W5 (IL-23α/IL-12β)
T1 sequence (Q5VWK5 24-353 limits assumed): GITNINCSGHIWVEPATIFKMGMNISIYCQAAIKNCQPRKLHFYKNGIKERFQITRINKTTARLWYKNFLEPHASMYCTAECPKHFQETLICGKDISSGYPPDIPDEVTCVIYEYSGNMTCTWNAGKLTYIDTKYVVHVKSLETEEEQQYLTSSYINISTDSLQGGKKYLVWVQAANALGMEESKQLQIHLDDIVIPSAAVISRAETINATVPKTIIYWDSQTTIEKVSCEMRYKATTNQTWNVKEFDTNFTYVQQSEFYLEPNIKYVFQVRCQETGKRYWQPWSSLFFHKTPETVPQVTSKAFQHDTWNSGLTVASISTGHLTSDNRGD
Method in brief: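 TR-FRET with IL-23α/IL-12β and IL-23R each at 0.3 nM in PPI buffer; compound preincubated with IL-23α/IL-12β 60 min at 25°C, then IL-23R and Tb/d2 detection reagents added for 60 min. HTRF 665/620 ratio; IC50 by nonlinear regression.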

IL-23R = biological target: T2, IL-23R (Homo sapiens, UniProt Q5VWK5); experiment: IL-23R reporter gene assay (HEK-blue IL23 reporter gene cell line, rhIL23 stimulation); format: cell-based; conditions: Inhibition of IL-23R, rhIL23 1 ng/mL, 24 hours
T2 construct: host or cells: HEK-blue IL23 reporter gene cell line
T2 sequence (Q5VWK5 24-629): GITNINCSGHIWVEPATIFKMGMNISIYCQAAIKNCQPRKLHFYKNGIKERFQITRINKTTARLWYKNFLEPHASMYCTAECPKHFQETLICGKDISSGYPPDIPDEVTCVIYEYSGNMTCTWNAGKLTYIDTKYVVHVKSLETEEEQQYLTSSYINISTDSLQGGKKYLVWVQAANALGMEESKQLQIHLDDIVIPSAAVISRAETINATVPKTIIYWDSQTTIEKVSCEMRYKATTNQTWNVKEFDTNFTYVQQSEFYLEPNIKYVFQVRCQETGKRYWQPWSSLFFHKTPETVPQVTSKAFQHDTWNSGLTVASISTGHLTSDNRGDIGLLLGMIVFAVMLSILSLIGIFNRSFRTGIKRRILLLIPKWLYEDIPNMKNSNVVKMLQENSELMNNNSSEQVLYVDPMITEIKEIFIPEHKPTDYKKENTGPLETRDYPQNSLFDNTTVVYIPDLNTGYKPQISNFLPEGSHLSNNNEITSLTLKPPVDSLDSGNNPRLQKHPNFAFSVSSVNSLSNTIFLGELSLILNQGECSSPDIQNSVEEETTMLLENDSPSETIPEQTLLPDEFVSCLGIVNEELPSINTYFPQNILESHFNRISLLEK
Procedure: 2. IL-23R reporter gene assay
The purpose of this assay was to assess the ability of compounds to inhibit the binding of IL23p19 to IL23R in a reporter gene system. The HEK-blue IL23 reporter gene cell line (Invivogen, hkb-il23) was cultured in DMEM + 10% FBS + 100 ug/mL Normocin medium. When the cell density reached 80%-90%, 5000 cells/well were plated into a 384-well plate, and the plate was incubated overnight at 37°C with 5% CO2. Then, the compound stock solution was diluted in DMSO, and 40 nL of the dilution was transferred into the 384-well culture plate by Echo. The plate was incubated at 37°C with 5% CO2 for 0.5 hours. 40 nL/well of rhIL23 (R&D, 1290-IL) was added to the 384-well cell culture plate at a final concentration of 1 ng/mL, and the plate was incubated at 37°C with 5% CO2 for 24 hours. 18 µL of Quanti-Blue™ solution was added to a new 384-well plate. 2 µL/well of cell culture supernatant was transferred into the 384-well plate prepared in Step 6, and the plate was incubated at 37°C with 5% CO2 for 1 hour. Absorbance values at […] were read on BMG. The binding ability of the compounds was assessed using the following formula, and IC50 values were obtained by fitting with Graphpad.
as §1
The calculation formula of IC50 was as follows: Y = Bottom + (Top−Bottom)/(1+10^(∧)((LogIC50−X)*HillSlope)) [formula] • where X: concentration of compound; and • Y: inhibition rate of compound Table 2. Inhibition of IL-23R by test compounds

[2] = Pharmacokinetic test in mice (intravenous and intragastric, plasma LC-MS/MS); format: in vivo; conditions: male, mouse, Balb/c mice
Procedure: 4. Pharmacokinetic test in mice
4.1. Experimental animals: Male Balb/c mice (20-25 g, 18 mice/compound) were purchased from Chengdu Dossy Experimental Animals Co., Ltd.
4.2. Experimental design: On the day of the experiment, the Balb/c mice were randomly grouped by body weight. The animals were fasted with water available for 12-14 h one day before the administration, and were fed 4 h after the administration. Table 4. Administration information
Before and after administration, 0.06 mL of blood was taken from the orbit under isoflurane anaesthesia, and placed in an EDTAK2 centrifuge tube. The tube was centrifuged at 5000 rpm at 4°C for 10 min, and plasma was collected. The blood collection time points for the intravenous group and intragastric group were both 0 min, 5 min, 15 min, 30 min, 1 h, 2 h, 4 h, 6 h, 8 h, and 24 h. Before analysis and detection, all samples were stored at -80°C, and the samples were quantitatively analysed by LC-MS/MS. Table 5. Pharmacokinetic parameters of test compounds in mouse plasma

(Homo sapiens, UniProt Q5VWK5), sequence (Q9NPF7 20-189 partner, other chains not shown): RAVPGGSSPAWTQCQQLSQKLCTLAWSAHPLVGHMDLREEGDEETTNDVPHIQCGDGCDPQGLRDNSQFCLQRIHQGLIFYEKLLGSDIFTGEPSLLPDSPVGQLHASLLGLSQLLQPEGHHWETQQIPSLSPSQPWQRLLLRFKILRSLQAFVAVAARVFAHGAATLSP
(Homo sapiens, UniProt Q5VWK5), sequence (P29460 23-328 partner, other chains not shown): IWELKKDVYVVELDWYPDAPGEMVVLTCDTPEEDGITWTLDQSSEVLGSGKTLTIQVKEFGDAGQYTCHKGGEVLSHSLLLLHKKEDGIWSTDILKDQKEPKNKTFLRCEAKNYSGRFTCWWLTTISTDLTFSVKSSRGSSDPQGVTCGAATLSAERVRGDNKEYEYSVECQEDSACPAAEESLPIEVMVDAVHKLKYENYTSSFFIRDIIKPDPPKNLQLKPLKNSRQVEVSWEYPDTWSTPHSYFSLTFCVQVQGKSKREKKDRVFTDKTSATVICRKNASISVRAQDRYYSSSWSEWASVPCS

Structure (SMILES)	IC50 [1] [nM]	IC50 (IL-23α/IL-12β and IL-23R) [nM]	IC50 (IL-23R) [nM]	AUC(0-t) ([2]; iv, i.v. (1 mg/kg)) [ng·h/mL]	clearance ([2]; iv, i.v. (1 mg/kg)) [mL/min/kg]	Vd ([2]; iv, i.v. (1 mg/kg), read-out: Vdss) [L/kg]	AUC(0-t) ([2]; po, i.g. (10 mg/kg)) [ng·h/mL]	bioavailability ([2]; po, i.g. (10 mg/kg)) [%]
CC(=O)N[C@H]1CC(=O)NCC[C@@H](C(=O)N[C@@H](Cc2ccc(OCCN)cc2)C(=O)N[C@@H](Cc2ccc3ccccc3c2)C(=O)NC2(C(=O)N[C@@H](CCC(=O)O)C(=O)N[C@@H](CC(N)=O)C(=O)N[C@@H](Cc3cccnc3)C(=O)N(C)CC(N)=O)CCOCC2)NC(=O)[C@H](CCC(N)=O)NC(=O)[C@H](Cc2c[nH]c3c(C)cccc23)NC(=O)[C@H]([C@@H](C)O)NC(=O)[C@H](Cc2c[nH]cn2)NC1=O [Compound 22] (Ac-DHT[Trp(7-Me)]Q[Dab][AEF][2Nal][Thp]EN[3Pal][Sar]-NH2; lactam 1-6)	0.0157	0.129						
CC(=O)N[C@@H]1C(=O)N[C@@H](Cc2c[nH]cn2)C(=O)N[C@@H]([C@@H](C)O)C(=O)N[C@@H](Cc2c[nH]c3c(C4CC4)cccc23)C(=O)N[C@@H](CCC(N)=O)C(=O)N[C@H](C(=O)N[C@@H](Cc2ccc(OCCN)cc2)C(=O)N[C@@H](Cc2ccc3ccccc3c2)C(=O)NC2(C(=O)N[C@@H](CCC(=O)O)C(=O)N[C@@H](CC(N)=O)C(=O)N[C@@H](Cc3cccnc3)C(=O)N(C)CC(N)=O)CCOCC2)C(C)(C)SSC1(C)C [Compound 13] (Ac-[Pen]HT[Trp(7-cPr)]Q[Pen][AEF][2Nal][Thp]EN[3Pal][Sar]-NH2; disulfide 1-6)	0.001	0.0384	3.12					
CC(=O)N[C@@H]1C(=O)N[C@@H](Cc2c[nH]cn2)C(=O)N[C@@H]([C@@H](C)O)C(=O)N[C@@H](Cc2c[nH]c3c(C)cccc23)C(=O)N[C@@H](CCC(N)=O)C(=O)N[C@H](C(=O)N[C@@H](Cc2ccc(OCCN)cc2)C(=O)N[C@@H](Cc2ccc3ccccc3c2)C(=O)NC2(C(=O)N[C@@H](CCC(=O)O)C(=O)N[C@@H](CC(N)=O)C(=O)N[C@@H](Cc3cccnc3)C(=O)N(C)CC(N)=O)CCOCC2)C(C)(C)SSC1(C)C [Compound 1] (Ac-[Pen]HT[Trp(7-Me)]Q[Pen][AEF][2Nal][Thp]EN[3Pal][Sar]-NH2; disulfide 1-6)	0.0071	0.0642	1.1					
CC(=O)N[C@@H]1C(=O)N[C@@H](Cc2c[nH]cn2)C(=O)N[C@@H]([C@@H](C)O)C(=O)N[C@@H](Cc2c[nH]c3c(C4CC4)cccc23)C(=O)N[C@@H](CCC(N)=O)C(=O)N[C@H](C(=O)N[C@@H](Cc2ccc(OCCN)c3c2CCC3)C(=O)N[C@@H](Cc2ccc3ccccc3c2)C(=O)NC2(C(=O)N[C@@H](CCC(=O)O)C(=O)N[C@@H](CC(N)=O)C(=O)N[C@@H](Cc3cccnc3)C(=O)N(C)CC(N)=O)CCS(=O)(=O)CC2)C(C)(C)SSC1(C)C [Compound 16] (Ac-[Pen]HT[Trp(7-cPr)]Q[Pen][Phe(4-OC2H4NH2,2,3-(CH2)3)][2Nal][Thp(SO2)]EN[3Pal][Sar]-NH2; disulfide 1-6)	0.0069	0.063	6.07	5440 ± 220	3.06 ± 0.13	0.378 ± 0.022	143 ± 13	0.263 ± 0.023
CC(=O)N[C@@H]1C(=O)N[C@@H](Cc2c[nH]cn2)C(=O)N[C@@H]([C@@H](C)O)C(=O)N[C@@H](Cc2c[nH]c3c(C)cccc23)C(=O)N[C@@H](CCC(N)=O)C(=O)N[C@H](C(=O)N[C@@H](Cc2ccc(OCCN)c3c2CCC3)C(=O)N[C@@H](Cc2ccc3ccccc3c2)C(=O)NC2(C(=O)N[C@@H](CCC(=O)O)C(=O)N[C@@H](CC(N)=O)C(=O)N[C@@H](Cc3cccnc3)C(=O)N(C)CC(N)=O)CCS(=O)(=O)CC2)C(C)(C)SSC1(C)C [Compound 15] (Ac-[Pen]HT[Trp(7-Me)]Q[Pen][Phe(4-OC2H4NH2,2,3-(CH2)3)][2Nal][Thp(SO2)]EN[3Pal][Sar]-NH2; disulfide 1-6)	0.0062	0.075	5.26					
CC(=O)N[C@@H]1C(=O)N[C@@H](Cc2c[nH]cn2)C(=O)N[C@@H]([C@@H](C)O)C(=O)N[C@@H](Cc2c[nH]c3c(C)cccc23)C(=O)N[C@@H](CCCNC(N)=O)C(=O)N[C@H](C(=O)N[C@@H](Cc2ccc(OCCN)cc2)C(=O)N[C@@H](Cc2ccc3ccccc3c2)C(=O)NC2(C(=O)N[C@@H](CCC(=O)O)C(=O)N[C@@H](CC(N)=O)C(=O)N[C@@H](Cc3cccnc3)C(=O)N(C)CC(N)=O)CCOCC2)C(C)(C)SSC1(C)C [Compound 2] (Ac-[Pen]HT[Trp(7-Me)][Cit][Pen][AEF][2Nal][Thp]EN[3Pal][Sar]-NH2; disulfide 1-6)	0.0068	0.0768	1.21					
CC(=O)NCCCC[C@@H]1NC(=O)[C@H](Cc2c[nH]c3c(C)cccc23)NC(=O)[C@H]([C@@H](C)O)NC(=O)[C@H](Cc2c[nH]cn2)NC(=O)[C@@H](NC(C)=O)C(C)(C)SSC(C)(C)[C@@H](C(=O)N[C@@H](Cc2ccc(OCCN)cc2)C(=O)N[C@@H](Cc2ccc3ccccc3c2)C(=O)NC2(C(=O)N[C@@H](CCC(=O)O)C(=O)N[C@@H](CC(N)=O)C(=O)N[C@@H](Cc3cccnc3)C(=O)N(C)CC(N)=O)CCOCC2)NC1=O [Compound 3] (Ac-[Pen]HT[Trp(7-Me)]K(Ac)[Pen][AEF][2Nal][Thp]EN[3Pal][Sar]-NH2; disulfide 1-6)	0.0066	0.174	1.36					
